Reference: patent US10087178B2, “Substituted spiropyrido[1,2-a]pyrazine derivative and medicinal use thereof as HIV integrase inhibitor” (priority 2012, dated 2018)
Where a name gives a salt, the structure may show the parent alone.

tested on: HIV-1 NL4-3 strain; test: Evaluation of antiviral activity: acute infection system of MT-4 cell with HIV-1 NL4-3 strain; format: cell-based; details: Human immunodeficiency virus 1, NL43, MT4, 120 h, MT-4 cells infected with HIV-1 NL4-3 strain (MOI 0.05), cultured 5 days, Cell Titer-Glo; read-out: antiviral activity (EC50)

In order of rising EC50:
1. CCC(=O)Oc1c2n(cc(C(=O)NCc3cccc(Cl)c3F)c1=O)[C@]1(CN(C)C2=O)C[C@H](COC)C1 [Example S67, 7′-(3-chloro-2-fluorobenzylcarbamoyl)-cis-3-(methoxymethyl)-2′-methyl-1′,8′-dioxo-1′,2′,3′,8′-tetrahydrospiro[cyclobutane-1,4′-pyrido[1,2-a]pyrazin]-9′-yl propionate]  0.9 nM
2. COC[C@H]1C[C@]2(CN(C)C(=O)c3c(OC(=O)c4cccc(C(=O)O)c4)c(=O)c(C(=O)NCc4cccc(Cl)c4F)cn32)C1 [Example 40, Monosodium 3-{[7′-(3-chloro-2-fluorobenzylcarbamoyl)-cis-3-(methoxymethyl)-2‘-methyl-’,8′-dioxo-1′,2′,3′,8′-tetrahydrospiro[cyclobutane-1,4′-pyrido[1,2-a]pyrazin]-9′-yloxy]carbonyl}benzoate]  1 nM
3. CO[C@H]1C[C@]2(CN(C)C(=O)c3c(OC(C)=O)c(=O)c(C(=O)NCc4cccc(Cl)c4F)cn32)C1 [Example S64, 7′-(3-chloro-2-fluorobenzylcarbamoyl)-cis-3-methoxy-2′-methyl-1′,8′-dioxo-1′,2′,3′,8′-tetrahydrospiro[cyclobutane-1,4′-pyrido[1,2-a]pyrazin]-9′-yl acetate]  2.8 nM
4. CN(C)C(=O)[C@@H]1C[C@]12CN(C1CC1)C(=O)c1c(O)c(=O)c(C(=O)NCc3cccc(Cl)c3F)cn12 [Example T33, (1R,2R)-N^7′-(3-chloro-2-fluorobenzyl)-2′-cyclopropyl-9′-hydroxy-N^2,N^2-dimethyl-1′,8′-dioxo-1′,2′,3′,8′-tetrahydrospiro[cyclopropane-1,4′-pyrido[1,2-a]pyrazine]-2,7′-dicarboxamide]  3.3 nM
5. CN1C[C@]2(C[C@@H](O)C2)n2cc(C(=O)NCc3cccc(Cl)c3F)c(=O)c(O)c2C1=O [Example S26, N-(3-chloro-2-fluorobenzyl)- trans-3,9′-dihydroxy-2′-methyl-1′,8′-dioxo-1′,2′,3′,8′-tetrahydrospiro[cyclobutane-1,4′-pyrido[1,2-a]pyrazine]-7′-carboxamide hydrochloride]  3.4 nM
6. CCCO[C@H]1C[C@@]2(CN(C)C(=O)c3c(O)c(=O)c(C(=O)NCc4cccc(Cl)c4F)cn32)C1 [Example S42, N-(3-chloro-2-fluorobenzyl)-9′-hydroxy-2′-methyl-1′,8′-dioxo-trans-3-propoxy-1′,2′,3′,8′-tetrahydrospiro[cyclobutane-1,4′-pyrido[1,2-a]pyrazine]-7′-carboxamide hydrochloride]  4.3 nM
7. CCN1C[C@]2(C[C@H](CO)C2)n2cc(C(=O)NCc3cccc(Cl)c3F)c(=O)c(O)c2C1=O [Example S46, N-(3-chloro-2-fluorobenzyl)-2′-ethyl-9′-hydroxy-cis-3-(hydroxymethyl)-1′,8′-dioxo-1′,2′,3′,8′-tetrahydrospiro[cyclobutane-1,4′-pyrido[1,2-a]pyrazine]-7′-carboxamide hydrochloride]  4.4 nM
8. CCO[C@H]1C[C@]2(Cn3cc(C(=O)NCc4cccc(Cl)c4F)c(=O)c(O)c3C(=O)N2CC)C1 [Example S57, N-(3-chloro-2-fluorobenzyl)- cis-3-ethoxy-2′-ethyl-9′-hydroxy-1′,8′-dioxo-1′,2′,4′,8′-tetrahydrospiro[cyclobutane-1,3′-pyrido[1,2-a]pyrazine]-7′-carboxamide hydrochloride]  4.7 nM
9. CCO[C@H]1C[C@@]2(Cn3cc(C(=O)NCc4cccc(Cl)c4F)c(=O)c(O)c3C(=O)N2CC)C1 [Example S56, N-(3-chloro-2-fluorobenzyl)- trans-3-ethoxy-2′-ethyl-9′-hydroxy-1′,8′-dioxo-1′,2′,4′,8′-tetrahydrospiro[cyclobutane-1,3′-pyrido[1,2-a]pyrazine]-7′-carboxamide hydrochloride]  5.1 nM
10. CCN1C[C@@]2(C[C@@H]2C(=O)NC)n2cc(C(=O)NCc3ccc(F)cc3F)c(=O)c(O)c2C1=O [Example T8, (1S,2S)-N^7′-(2,4-difluorobenzyl)-2′-ethyl-9′-hydroxy-N^2-methyl-1′,8′-dioxo-1′,2′,3′,8′-tetrahydrospiro[cylcopropane-1,4′-pyrido[1,2-a]pyrazine]-2,7′-dicarboxamide hydrochloride]  6.1 nM
11. COc1ccc(CNC(=O)c2cn3c(c(O)c2=O)C(=O)N(C)C[C@]32C[C@@H](CO)C2)c(F)c1Cl [Example S49]  65 nM

same assay, conditions: Human immunodeficiency virus 1, NL43, MT4, 120 h, antiviral activity; MT-4 cells infected with HIV-1 NL4-3 (MOI 0.05), 5 days culture, Cell Titer-Glo luminescence

Work on `COC[C@H]1C[C@@]12CN(C(C)C)C(=O)c1c(O)c(=O)c(C(=O)NCc3ccc(F)cc3F)cn12` [Example 10, (1S,2S)—N-(2,4-difluorobenzyl)-9′-hydroxy-2′-isopropyl-2-(methoxymethyl)-1′,8′-dioxo-1′,2′,3′,8′-tetrahydrospiro[cyclopropane-1,4′-pyrido[1,2-a]pyrazine]-7′-carboxamide hydrochloride] yielded an EC50 of 3.6 nM.

same assay, conditions: Human immunodeficiency virus 1, NL43, MT4, 120 h, antiviral activity; MT-4 cells infected with HIV-1 NL4-3 (MOI 0.05), 5 days culture, Cell Titer-Glo luminescence; read-out: EC50

In order of rising EC50:
1. COCCO[C@H]1C[C@@]2(CN(C(C)C)C(=O)c3c(O)c(=O)c(C(=O)NCc4ccc(F)cc4F)cn32)C1 [Example S8, N-(2,4-difluorobenzyl)-9′-hydroxy-2′-isopropyl-trans-3-(2-methoxyethoxy)-1′,8′-dioxo-1′,2′-3′,8′-tetrahydrospiro[cyclobutane-1,4′-pyrido[1,2-a]pyrazine]-7′-carboxamide hydrochloride]  5.3 nM
2. CCN1C[C@]2(C[C@@H](OCc3ccccc3)C2)n2cc(C(=O)NCc3ccc(F)cc3F)c(=O)c(O)c2C1=O [Example S15, trans-3-(benzyloxy)-N-(2,4-difluorobenzyl)-2′-ethyl-9′-hydroxy-1′,8′-dioxo-1′,2′,3′,8′-tetrahydrospiro[cyclobutane-1,4′-pyrido[1,2-a]pyrazine]-7′-carboxamide hydrochloride]  6.9 nM
3. CN1C[C@]2(C[C@H](O)C2)n2cc(C(=O)NCc3ccc(F)cc3F)c(=O)c(O)c2C1=O [Example S12, N-(2,4-difluorobenzyl)-cis-3,9′-dihydroxy-2′-methyl-1′,8′-dioxo-1′,2′,3′,8′-tetrahydrospiro[cyclobutane-1,4′-pyrido[1,2-a]pyrazine]-7′-carboxamide hydrobromide]  23 nM

same assay, conditions: Human immunodeficiency virus 1, NL43, MT4, 120 h, read-out: antiviral activity (EC50), MT-4 cells infected with HIV-1 NL4-3 strain (MOI 0.05), cultured 5 days, Cell Titer-Glo

In order of rising EC50:
1. CC(C)N1C[C@@]2(C[C@H]2CO)n2cc(C(=O)NCc3cccc(Cl)c3F)c(=O)c(O)c2C1=O [Example T28, (1S,2R)-N-(3-chloro-2-fluorobenzyl)-9′-hydroxy-2-(hydroxymethyl)-2′-isopropyl-1′,8′-dioxo-1′,2′,3′,8′-tetrahydrospiro[cyclopropane-1,4′-pyrido[1,2-a]pyrazine]-7′-carboxamide hydrochloride]  5.2 nM
2. COC[C@@H]1C[C@]12CN(C)C(=O)c1c(O)c(=O)c(C(=O)NCc3ccc(OC)c(Cl)c3F)cn12 [Example T36, (1R,2R)-N-(3-chloro-2-fluoro-4-methoxybenzyl)-9′-hydroxy-2-(methoxymethyl)-2′-methyl-1′,8′-dioxo-1′,2′,3′,8′-tetrahydrospiro[cyclopropane-1,4′-pyrido[1,2-a]pyrazine]-7′-carboxamide hydrochloride]  10 nM
3. CCN1C(=O)c2c(O)c(=O)c(C(=O)NCc3ccc(OC)c(Cl)c3F)cn2C[C@@]12C[C@@H]2CO [Example T48, (1S,2S)-N-(3-chloro-2-fluoro-4-methoxybenzyl)-2′-ethyl-9′-hydroxy-2-(hydroxymethyl)-1′,8′-dioxo-1′,2′,4′,8′-tetrahydrospiro[cyclopropane-1,3′-pyrido[1,2-a]pyrazine]-7′-carboxamide hydrochloride]  18 nM
